Publication PMC7725003, “Systematically Studying the Optimal Amino Acid Distribution Patterns of the Amphiphilic Structure by Using the Ultrashort Amphiphiles” (Frontiers in Microbiology, 2020)
Where no end group is shown, it is not given here.

Legend:
P. aeruginosa ATCC 27853 = assay type: cell-based, Pseudomonas aeruginosa; conditions: after 30 passages in sub-MBC concentration
Protocol: Finally, P. aeruginosa ATCC 27853 was used as the model of the drug resistance study. […] The MBC values of the drugs against every two passage’s cells were tested. As a control, MBCs were also tested using cells that were serially passaged in fresh MHB without drugs. The assay was conducted independently in triplicate with three biological replicates.

E. coli 25922 = assay type: cell-based, Escherichia coli; conditions: 25922, 24 h
Procedure, shortened: (§1)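 MIC = lowest peptide concentration giving 95% growth inhibition (A492) after 24 h at 37°C in MHB, inoculum 0.5–1 × 10^6 CFU mL^–1. Peptides serially diluted in 0.2% BSA. MBC = lowest concentration killing >99.9% of cells on overnight agar plating.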

E. coli O78 = assay type: cell-based, Escherichia coli; conditions: O78, 24 h
Procedure, shortened: as §1

E. coli UB1005 = assay type: cell-based, Escherichia coli; conditions: UB1005, 24 h
Procedure, shortened: as §1

S. typhimurium 14028 = assay type: cell-based, Salmonella typhimurium; conditions: 14028, 24 h
Procedure, shortened: as §1

S. typhimurium 7731 = assay type: cell-based, Salmonella typhimurium; conditions: 7731, 24 h
Procedure, shortened: as §1

S. pullorum 7913 = assay type: cell-based, Salmonella pullorum; conditions: 7913, 24 h
Procedure, shortened: as §1

P. aeruginosa 27853 = assay type: cell-based, Pseudomonas aeruginosa; conditions: 27853, 24 h
Procedure, shortened: as §1

E. coli K88 = system: E. coli K88
Procedure, shortened: (§2)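 Peptides were serially diluted in 0.2% BSA and added to mid-logarithmic cells diluted in MHB to 0.5–1 × 10^6 CFU mL^–1. Assays followed an adapted NCCLS protocol.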

E. coli K99 = system: E. coli K99
Procedure, shortened: as §2

Gram-negative bacteria [1] = system: Gram-negative bacteria
Procedure, shortened: (§3)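 Broth microdilution adapted from NCCLS: mid-log bacteria diluted in MHB to 0.5–1 × 10^6 CFU mL^–1, mixed with peptides serially diluted in 0.2% BSA. After 24 h at 37°C, MIC taken as the lowest concentration inhibiting 95% of growth by absorbance at 492 nm. Assays repeated more than 3 times.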

Gram-positive bacteria [2] = system: Gram-positive bacteria
Procedure, shortened: as §3

S. aureus 25923 = assay type: cell-based, Staphylococcus aureus; conditions: 25923, 24 h
Procedure, shortened: as §1

S. aureus 29213 [3] = assay type: cell-based, Staphylococcus aureus; conditions: 29213, 24 h
Procedure, shortened: as §1

S. epidermidis 12228 = assay type: cell-based, Staphylococcus epidermidis; conditions: 12228, 24 h
Procedure, shortened: as §1

MRSA 43300 = assay type: cell-based, methicillin-resistant S. aureus; conditions: 43300, 24 h
Procedure, shortened: as §1

B. subtilis 63501 = assay type: cell-based, Bacillus subtilis; conditions: 63501, 24 h
Procedure, shortened: as §1

E. faecalis 29212 = assay type: cell-based, Enterococcus faecalis; conditions: 29212, 24 h
Procedure, shortened: as §1

[4] = system: Listeria monocytogenes CGMCC 1.1075; assay type: cell-based; conditions: CGMCC 1.1075, 24 h
Procedure, shortened: as §1

[5] = system: all of the tested bacterial strains; test: Geometric mean of MICs, all tested bacterial strains; assay type: cell-based
Procedure, shortened: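 Mid-log bacteria at 0.5–1 × 10^6 CFU mL^–1 in MHB with peptides serially diluted in 0.2% BSA, 24 h at 37°C. MIC is the lowest concentration giving 95% growth inhibition by A492. MBC is the lowest giving >99.9% kill on agar subculture, and the GM is taken over all strains.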

E. coli ATCC 25922 = test: Salt sensitivity assay (MIC); assay type: cell-based, Escherichia coli
Procedure, shortened: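 The salt sensitivity of peptides was tested against E. coli ATCC 25922 using a modified NCCLS broth microdilution MIC method. Mid-log bacteria were diluted in MHB to 0.5–1 × 10^6 CFU mL^–1 and mixed in equal volumes with peptides serially diluted in 0.2% BSA in 96-well plates. Physiological salt was added where specified, and the assay was done three independent times.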

S. aureus 29213 [6] = test: Salt sensitivity assay (MIC); assay type: cell-based, Staphylococcus aureus
Procedure, shortened: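 MICs determined by broth microdilution in MHB with 0.5–1 × 10^6 CFU/mL, peptides serially diluted in 0.2% BSA, 24 h at 37°C. Medium supplemented with physiological salts (150 mM NaCl, 4.5 mM KCl, 6 μM NH4Cl, 8 μM ZnCl2, 1 mM MgCl2, 2mM CaCl2, 4 μM FeCl3). MIC = lowest concentration inhibiting 95% growth (A492).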

Gram-negative bacteria [7] = conditions: geometric mean of MBCs, 9 Gram-negative strains (Table 2)
Gram-positive bacteria [8] = conditions: geometric mean of MBCs, 7 Gram-positive strains (Table 2)
[9] = MHB, 24 h 37°C, 95% growth inhibition
[10] = value in brackets, >99.9% of cells killed
[11] = therapeutic index TI = MHC/GM MIC
[12] = no added salt, three independent assays

## CC(C)(O/N=C(\C(=O)N[C@@H]1C(=O)N2C(C(=O)[O-])=C(C[n+]3ccccc3)CS[C@H]12)c1csc(N)n1)C(=O)O [ceftazidime, reference compound]
P. aeruginosa ATCC 27853
  increase of MBC value: 64 fold

## RLLLLRRLR-NH2 [L10]
E. coli 25922
  MBC: 64 µM
  MIC: 32 µM
E. coli O78
  MBC: 32 µM
  MIC: 16 µM
E. coli UB1005
  MIC: > 64 µM
S. typhimurium 14028
  MIC: >64 µM
S. typhimurium 7731
  MBC: 128 µM
  MIC: 64 µM
S. pullorum 7913
  MIC: > 64 µM
P. aeruginosa 27853
  MBC: 64 µM
  MIC: 32 µM
E. coli K88; [9]
  MIC: 32 µM
E. coli K88; [10]
  MBC: 64 µM
E. coli K99; [9]
  MIC: 4 µM
E. coli K99; [10]
  MBC: 8 µM
Gram-negative bacteria [1]; geometric mean of MICs, 9 Gram-negative strains (Table 2)
  GM MIC: 40.32 µM
Gram-negative bacteria [1]; [11]
  TI, Gram-negative bacteria: 6.35
Gram-positive bacteria [2]; geometric mean of MICs, 7 Gram-positive strains (Table 2)
  GM MIC: 70.66 µM
Gram-positive bacteria [2]; [11]
  TI, Gram-positive bacteria: 3.62
S. aureus 25923
  MIC: > 64 µM
S. aureus 29213 [3]
  MIC: >64 µM
S. epidermidis 12228
  MIC: > 64 µM
MRSA 43300
  MIC: >64 µM
B. subtilis 63501
  MBC: 32 µM
  MIC: 16 µM
E. faecalis 29212
  MIC: > 64 µM
[4]
  MBC: 32 µM
  MIC: 16 µM
[5]; geometric mean of MICs across all tested strains
  GM, All: 51.54 µM
[5]; [11]
  TI, All: 4.97
E. coli ATCC 25922; 4 μM FeCl3
  MIC, FeCl3: 32 µM
E. coli ATCC 25922; 6 μM NH4Cl
  MIC, NH4Cl: 32 µM
E. coli ATCC 25922; 8 μM ZnCl2
  MIC, ZnCl2: 32 µM
E. coli ATCC 25922; 1 mM MgCl2
  MIC, MgCl2: 32 µM
E. coli ATCC 25922; 2 mM CaCl2
  MIC, CaCl2: 32 µM
E. coli ATCC 25922; 4.5 mM KCl
  MIC, KCl: 32 µM
E. coli ATCC 25922; 150 mM NaCl
  MIC, NaCl: 32 µM
E. coli ATCC 25922; [12]
  MIC, Control: 32 µM
S. aureus 29213 [6]; 4 μM FeCl3
  MIC, FeCl3: > 64 µM
S. aureus 29213 [6]; 6 μM NH4Cl
  MIC, NH4Cl: > 64 µM
S. aureus 29213 [6]; 8 μM ZnCl2
  MIC, ZnCl2: > 64 µM
S. aureus 29213 [6]; 1 mM MgCl2
  MIC, MgCl2: > 64 µM
S. aureus 29213 [6]; 2 mM CaCl2
  MIC, CaCl2: > 64 µM
S. aureus 29213 [6]; 4.5 mM KCl
  MIC, KCl: > 64 µM
S. aureus 29213 [6]; 150 mM NaCl
  MIC, NaCl: > 64 µM
S. aureus 29213 [6]; [12]
  MIC, Control: > 64 µM
Gram-negative bacteria [7]
  GM MBC: 64.00 µM
Gram-positive bacteria [8]
  GM MBC: 86.14 µM
